Consider one compound from patent US20210130362A1, “MEDICAL USE OF COMPOUND III” (Boehringer Ingelheim International GmbH, priority 2017, published 2021).

Data set [1] in a line: Intrinsic dissolution rate of compound III. In kind it is physicochemical. The settings on record: physiologically relevant pH range above pH 4.
In data set [2] the test system is patients with schizophrenia on stable antipsychotic treatment. The data set can be described thus: Multinational, randomised, double-blind, placebo-controlled, parallel group clinical trial of compound III, 12 weeks of treatment. In kind it is in vivo, human. The protocol:
Regarding reducing the exacerbations of symptoms characterizing relapse, including suicidality, the clinical trial disclosed below was designed to show the efficacy of compound III in improvement of cognitive impairment in patients with schizophrenia as compared to placebo. All patients were on stable antipsychotic treatment (see Table 8 in FIGS. 6A-6C). The study was a multinational, multicentre, randomised, double-blind, placebo-controlled, parallel group trial.
Compound III (10, 25 and 50 mg) and matching placebo were supplied as film-coated tablets (formulation 1).
In total, 516 patients with schizophrenia on stable antipsychotic treatment (Table 8 in FIGS. 6A-6C) as described below were randomized into this trial. […]
The primary safety endpoints are as follows: • Occurrence of adverse events (AEs)/serious adverse events (including the abnormalities of physical examination, vital signs, electrocardiogram test and laboratory tests) • Occurrence of protocol-specified adverse events of special interest • Dramatic worsening of disease state as assessed by PANSS • Suicidality as assessed by Columbia Suicidal Severity Rating Scale (C-SSRS) […]

Setting [3] is: patients with schizophrenia receiving antipsychotic therapy.

On to `O=c1[nH]c(Cc2ccccn2)nc2c1cnn2C1CCOCC1` [compound III], for which, in data set [1], the intrinsic dissolution rate result is given as “low”. For the same compound, in data set [2] (any arm dosed with compound III (10, 25, 50, 100 mg qd), 12 weeks, treated set, 8/8 (100%) of these SAEs in placebo arm), the “psychiatric serious adverse events (SAEs): hospitalization for disease worsening (schizophrenia, psychotic disorder) and suicidality leading to hospitalization” value is recorded as “none”. Besides, in data set [2] (setting [3]), the “change in intensity and occurrence of suicidal ideation compared to placebo” value is on record as “decrease”; the “change in psychiatric serious adverse events (hospitalization for serious worsening of schizophrenia symptoms) compared to placebo” value is on record as “statistically significant, clinically meaningful decrease”.
